{
  "source": "patent US8293280B2",
  "about": "“Method for treatment of HIV infection” (priority 2004, dated 2012)",
  "test_system": "SIVmac239",
  "format": "in vivo, rhesus macaques (Macaca mulatta)",
  "data": [
    {"smiles": "C[C@H](Cn1cnc2c(N)ncnc21)OCP(=O)(O)O", "note": "[PMPA, 9-R-(2-phophorylmethoxypropyl) adenine]", "values": [
      {"measurement": "viral loads after termination of PMPA therapy", "setting": "Group 2: no further treatment, Group 3: extract 3.3 NU/kg s.c. daily for 60 days, initiated 2 days prior to termination of PMPA", "value": "viral loads rebounded soon after the discontinuation of PMPA therapy"},
      {"measurement": "plasma viral loads", "setting": "by day 28 of PMPA therapy, 30 mg/kg s.c. daily for 28 days, Groups 2 and 3", "value": "100 to 1000", "unit": "viral copies per mL"}
    ]}
  ]
}
